# System: Human chondrocytes
# Assay: Telomere length in chondrocytes, relative quantification for the telomeric repeat (T/S-ratio)
# Type: cell-based
# Conditions: LFA transfection, n=3, P65i high
substance,measurement,value
"RelA/NFkB p65 [pSer529, pSer536] inhibitor peptide [P65i]",% increase in TL,4.0%
same,T/S-ratio,1.01

# — patent publication US20180360924A1, “TELOMERE EXTENSION AND ANTI-INFLAMMATORY AGENTS FOR CELL REGENERATION” (THE METHODIST HOSPITAL SYSTEM, priority 2015, published 2018)
